Data published in patent US6552086B1, “Sulfonamide derivatives” (Eli Lilly and Company, priority 1998, dated 2003).

Molecular target: T1, human GluR4B receptor (Homo sapiens, UniProt P48058)
T1 construct: expressed in transfected cells
Experiment: Potentiation of agonist-induced excitability of human GluR4B expressed in HEK 293 cells
Format: cell-based
Conditions: human GluR4B receptor expressed in HEK 293 cells
Text: The ability of compounds of formula I to potentiate glutamate receptor-mediated response may be determined using fluorescent calcium indicator dyes (Molecular Probes, Eugene, Oreg., Fluo-3) and by measuring glutamate-evoked efflux of calcium into GluR4 transfected HEK293 cells, as described in more detail below.
In one test, 96 well plates containing confluent monolayers of HEK cells stably expressing human GluR4B (obtained as described in European Patent Application Publication Number EP-A1-583917) are prepared. The tissue culture medium in the wells is then discarded, and the wells are each washed once with 200 μl of buffer (glucose, 10 mM, sodium chloride, 138 mM, magnesium chloride, 1 mM, potassium chloride, 5 mM, calcium chloride, 5 mM, N-[2-hydroxyethyl]-piperazine-N-[2-ethanesulfonic acid], 10 mM, to pH 7.1 to 7.3). […]
Each test is then performed as follows. […] A second fluorescent reading is taken after 5 minutes incubation. 15 μl of 400 μM glutamate solution is then added to each well (final glutamate concentration 100 μM), and a third reading is taken. The activities of test compounds and cyclothiazide solutions are determined by subtracting the second from the third reading (fluorescence due to addition of glutamate in the presence or absence of test compound or cyclothiazide) and are expressed relative to enhance fluorescence produced by 100 μM cyclothiazide.

T1 sequence (P48058 21-902): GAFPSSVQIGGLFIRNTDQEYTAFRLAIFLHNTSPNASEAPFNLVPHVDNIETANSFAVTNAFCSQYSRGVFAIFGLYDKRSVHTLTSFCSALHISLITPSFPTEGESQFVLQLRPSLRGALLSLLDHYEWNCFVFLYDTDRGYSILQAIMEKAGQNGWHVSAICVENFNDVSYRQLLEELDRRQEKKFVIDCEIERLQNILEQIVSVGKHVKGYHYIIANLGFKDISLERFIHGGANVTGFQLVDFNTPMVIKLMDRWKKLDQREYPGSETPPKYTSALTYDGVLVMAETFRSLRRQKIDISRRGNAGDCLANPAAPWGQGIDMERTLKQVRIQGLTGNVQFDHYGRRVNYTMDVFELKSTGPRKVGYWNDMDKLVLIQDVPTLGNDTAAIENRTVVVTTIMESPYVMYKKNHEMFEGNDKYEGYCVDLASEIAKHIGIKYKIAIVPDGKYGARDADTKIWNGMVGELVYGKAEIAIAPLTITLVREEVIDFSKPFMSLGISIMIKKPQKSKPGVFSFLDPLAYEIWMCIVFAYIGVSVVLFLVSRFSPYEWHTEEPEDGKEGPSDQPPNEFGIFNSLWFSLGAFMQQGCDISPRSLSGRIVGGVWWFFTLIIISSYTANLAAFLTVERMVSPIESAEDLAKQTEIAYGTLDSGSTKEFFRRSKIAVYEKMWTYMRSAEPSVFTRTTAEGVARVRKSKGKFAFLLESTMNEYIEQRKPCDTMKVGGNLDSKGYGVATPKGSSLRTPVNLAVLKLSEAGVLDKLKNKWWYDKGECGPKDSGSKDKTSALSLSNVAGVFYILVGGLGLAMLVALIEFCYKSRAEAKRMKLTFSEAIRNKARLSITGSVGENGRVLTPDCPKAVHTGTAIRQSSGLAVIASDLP

SMILES: NS(=O)(=O)c1cc2c(cc1Cl)NC(C1CC3C=CC1C3)NS2(=O)=O (stereo not shown) [cyclothiazide]
- potentiation of agonist-induced excitability: potentiate
